# Laboratory results from ChEMBL document CHEMBL6092122, “Nonenzymatic Sequestering of Formaldehyde into the Antibiotic Methylene-Bridged Dimer Phaeochromycin F by Streptomyces sp. OUCMDZ-4982 as a Possible Multipronged Chemical Defense Mechanism” (J Nat Prod, 2024).
# The source made the active and inactive calls. The calls are words filed in the database; no cut-off is given here.
# Tests used:
# [1] = test system: Nakaseomyces glabratus; test: Antifungal activity against Candida glabrata ATCC 2001 incubated for 24 hrs by microdilution method; assay type: functional, organism-based
# [2] = test system: Escherichia coli; test: Antibacterial activity against Escherichia coli ATCC 11175 incubated for 24 hrs by microdilution method; assay type: functional, organism-based
# [3] = test system: Pseudomonas aeruginosa; test: Antibacterial activity against Pseudomonas aeruginosa ATCC 10145 incubated for 24 hrs by microdilution method; assay type: functional, organism-based
# [4] = test system: Candida albicans; test: Antifungal activity against Candida albicans ATCC 10231 incubated for 24 hrs by microdilution method; assay type: functional, organism-based
# [5] = Drug metabolism in Staphylococcus aureus ATCC 6538 assessed as 3,3-methylenebis(4-hydroxy-6-methyl-2H-pyran-2-one) formation in presence of 2266E medium by HPLC analysis; assay type: ADME
# [6] = test system: Streptomyces sp.; test: Protection against formaldehyde-induced toxicity in Streptomyces sp. OUCMDZ-4982 cultured in A1 medium assessed as decrease in bacterial growth incubated for 1 hr; assay type: functional, organism-based
# [7] = test system: Streptomyces sp.; test: Protection against formaldehyde-induced toxicity in Streptomyces sp. OUCMDZ-4982 cultured in Gauze medium assessed as inhibition of bacterial growth incubated for 1 hr; assay type: functional, organism-based
# [8] = test system: Streptomyces sp.; test: Protection against formaldehyde-induced toxicity in Streptomyces sp. OUCMDZ-4982 cultured in Gauze medium assessed as decrease in bacterial growth incubated for 1 hr; assay type: functional, organism-based
# [9] = test system: Bacillus subtilis; test: Antibiotic activity against Bacillus subtilis ATCC 6051 assessed as compound dimer phaeochromycinF mediated reduction in bacterial growth in LB medium measured upto 8 days; assay type: functional, organism-based; conditions: time <= 8.0 day
# [10] = Drug metabolism in Bacillus subtilis ATCC 6051 assessed as phaeochromycinF formation incubated for 1 hr by LC-MS analysis; assay type: ADME
# [11] = Drug metabolism in Staphylococcus aureus ATCC 6538 assessed as phaeochromycinF formation incubated for 1 hr by LC-MS analysis; assay type: ADME
# [12] = test system: Staphylococcus aureus; test: Antibiotic activity against Staphylococcus aureus ATCC 6538 assessed as compound dimer phaeochromycinF mediated reduction in bacterial growth in LB medium measured upto 8 days; assay type: functional, organism-based; conditions: time <= 8.0 day
# [13] = test system: Streptomyces sp.; test: Protection against formaldehyde-induced toxicity in Streptomyces sp. OUCMDZ-4982 cultured in Gauze medium; assay type: functional, organism-based
# [14] = test system: Staphylococcus aureus; test: Antibacterial activity against Staphylococcus aureus ATCC 43300 incubated for 24 hrs by microdilution method; assay type: functional
# [15] = test system: Staphylococcus aureus; test: Antibacterial activity against methicillin-resistant Staphylococcus aureus ATCC 43300 incubated for 24 hrs by microdilution method; assay type: functional
# [16] = test system: Staphylococcus aureus; test: Antibacterial activity against Staphylococcus aureus ATCC 6538 in absence of HCHO by microdilution method; assay type: functional
# [17] = test system: Staphylococcus aureus; test: Antibacterial activity against methicillin-resistant Staphylococcus aureus ATCC 43300 in absence of HCHO by microdilution method; assay type: functional
# [18] = Chemical reactivity of compound in formaldehyde assessed as (1S,2R,18R,19R,22S,25R,28R,40S)-48-[(2S,3R,4S,5S,6R)-3-[(2S,4S,5S,6S)-4-amino-5-hydroxy-4,6-dimethyl-tetrahydropyran-2-yl]oxy-4,5-dihydroxy-6-(hydroxymethyl)tetrahydropyran-2-yl]oxy-22-(2-amino-2-oxo-ethyl)-5,15-dichloro-2,18,32,35,37-pentahydroxy-19-[(4R)-4-isobutyl-3-methyl-5-oxo-imidazolidin-1-yl]-20,23,26,42,44-pentaoxo-7,13-dioxa-21, …; assay type: physicochemical
# [19] = Chemical reactivity of compound in acetaldehyde assessed as (1S,2R,18R,19R,22S,25R,28R,40S)-48-[(2S,3R,4S,5S,6R)-3-[(2S,4S,5S,6S)-4-amino-5-hydroxy-4,6-dimethyl-tetrahydropyran-2-yl]oxy-4,5-dihydroxy-6-(hydroxymethyl)tetrahydropyran-2-yl]oxy-22-(2-amino-2-oxo-ethyl)-5,15-dichloro-2,18,32,35,37-pentahydroxy-19-[(2R,4R)-4-isobutyl-2,3-dimethyl-5-oxo-imidazolidin-1-yl]-20,23,26,42,44-pentaoxo-7,13-di …; assay type: physicochemical
# [20] = Chemical reactivity of compound in formaldehyde assessed as (4R,4aR,5aS,12aR)-9-(3-(tert-butyl)-5-oxoimidazolidin-1-yl)-4,7-bis(dimethylamino)-3,10,12,12a-tetrahydroxy-1,11-dioxo-1,4,4a,5,5a,6,11,12a-octahydrotetracene-2-carboxamide formation; assay type: physicochemical
# [21] = test system: Staphylococcus aureus; test: Antibacterial activity against Staphylococcus aureus ATCC 6538 incubated for 24 hrs by microdilution method; assay type: functional
# [22] = test system: Bacillus subtilis; test: Bactericidal activity against Bacillus subtilis ATCC 6051 incubated for 24 hrs by microdilution method; assay type: functional
# [23] = test system: Bacillus subtilis; test: Antibacterial activity against Bacillus subtilis ATCC 6051 incubated for 24 hrs by microdilution method; assay type: functional
# [24] = test system: Staphylococcus aureus; test: Bactericidal activity against Staphylococcus aureus ATCC 43300 incubated for 24 hrs by microdilution method; assay type: functional
# [25] = Drug metabolism in Staphylococcus aureus ATCC 6538 assessed as reduction in 5-((4-hydroxy-2-oxo-2H-pyran-6-yl)methyl)-2-methyl-4H-chromen-4-one content incubated for 1 hr by LC-MS analysis; assay type: ADME
# [26] = test system: Staphylococcus aureus; test: Bactericidal activity against Staphylococcus aureus ATCC 6538 incubated for 24 hrs by microdilution method; assay type: functional
# [27] = test system: Staphylococcus aureus; test: Bacteriostatic activity against methicillin-resistant Staphylococcus aureus ATCC 43300 assessed as reduction in bacterial colonies at 2 to 8 times MIC measured after 24 hrs by time kill assay; assay type: functional, organism-based
# [28] = Drug metabolism in Staphylococcus aureus ATCC 6538 assessed as reduction in formaldehyde content incubated for 1 hr by LC-MS analysis; assay type: ADME
# [29] = test system: Staphylococcus aureus; test: Induction of drug resistance in Staphylococcus aureus ATCC 6538 assessed as increase in MIC measured after 20 passages incubated for 24 hrs; assay type: functional, organism-based
# [30] = Drug metabolism in Staphylococcus aureus ATCC 6538 assessed as (1S,2R,18R,19R,22S,25R,28R,40S)-48-[(2S,3R,4S,5S,6R)-3-[(2S,4S,5S,6S)-4-amino-5-hydroxy-4,6-dimethyl-tetrahydropyran-2-yl]oxy-4,5-dihydroxy-6-(hydroxymethyl)tetrahydropyran-2-yl]oxy-22-(2-amino-2-oxo-ethyl)-5,15-dichloro-2,18,32,35,37-pentahydroxy-19-[(4R)-4-isobutyl-3-methyl-5-oxo-imidazolidin-1-yl]-20,23,26,42,44-pentaoxo-7,13-dioxa- …; assay type: ADME
# [31] = test system: Staphylococcus aureus; test: microbe, parasite or virus in culture; conditions: ATCC 6538
# Description: Antibacterial activity against Staphylococcus aureus ATCC 6538 in presence of 4 mg/L HCHO by microdilution method
# [32] = test system: Staphylococcus aureus; test: microbe, parasite or virus in culture; conditions: ATCC 43300
# Description: Antibacterial activity against methicillin-resistant Staphylococcus aureus ATCC 43300 in presence of 8 mg/L HCHO by microdilution method
# [33] = test system: Staphylococcus aureus; test: microbe, parasite or virus in culture; conditions: ATCC 6538; remark: listed apart in the source
# Description: Antibacterial activity against Staphylococcus aureus ATCC 6538 in presence of 8 mg/L HCHO by microdilution method
# [34] = test system: Staphylococcus aureus; test: microbe, parasite or virus in culture; conditions: ATCC 43300; remark: listed apart in the source
# Description: Antibacterial activity against methicillin-resistant Staphylococcus aureus ATCC 43300 in presence of 4 mg/L HCHO by microdilution method
Structure (SMILES),Activity [1],Activity [2],Activity [3],Activity [4],also measured
CC1(O)CC(=O)c2c(Cc3cc(O)c(Cc4c(O)cc(Cc5cccc6c5C(=O)CC(C)(O)O6)oc4=O)c(=O)o3)cccc2O1 (stereo unspecified),inactive,inactive,inactive,inactive,
Cc1cc(O)cc(=O)o1 [4-HYDROXY-6-METHYLPYRAN-2-ONE],,,,,Drug metabolism [5]: metabolite_detected; Activity [6]: Active; Activity [7]: Active; Activity [8]: inactive
Cc1cc(=O)c2c(Cc3cc(O)c(C(c4ccccc4)c4c(O)cc(Cc5cccc6oc(C)cc(=O)c56)oc4=O)c(=O)o3)cccc2o1,inactive,inactive,inactive,inactive,
Cc1cc(=O)c2c(Cc3cc(O)cc(=O)o3)cccc2o1,inactive,inactive,inactive,inactive,Activity [9]: inactive; Drug metabolism [10]: metabolite_detected; Drug metabolism [11]: metabolite_detected; Activity [12]: Active; Activity [13]: Active
Cc1cc(=O)c2c(Cc3cc(O)c([C@H]4c5c(cc(Cc6cccc7oc(C)cc(=O)c67)oc5=O)O[C@H]4CC(=O)O)c(=O)o3)cccc2o1,inactive,inactive,inactive,inactive,
"CN(C)c1cc(N2CN(C(C)(C)C)CC2=O)c(O)c2c1C[C@H]1C[C@H]3[C@H](N(C)C)C(O)=C(C(N)=O)C(=O)[C@@]3(O)C(O)=C1C2=O (single isomer, unassigned)",,,,,MIC [14]: 1 µg/mL; MIC [15]: 32 µg/mL
Cc1cc(=O)c2c(Cc3cc(O)c(C(C)c4c(O)cc(Cc5cccc6oc(C)cc(=O)c56)oc4=O)c(=O)o3)cccc2o1,inactive,inactive,inactive,inactive,
CC(C)C[C@@H]1C(=O)N([C@H]2C(=O)N[C@@H](CC(N)=O)C(=O)N[C@H]3C(=O)N[C@H]4C(=O)N[C@H](C(=O)N[C@H](C(=O)O)c5cc(O)cc(O)c5-c5cc4ccc5O)[C@H](O)c4ccc(c(Cl)c4)Oc4cc3cc(c4O[C@@H]3O[C@H](CO)[C@@H](O)[C@H](O)[C@H]3O[C@H]3C[C@](C)(N)[C@H](O)[C@H](C)O3)Oc3ccc(cc3Cl)[C@H]2O)[C@H](C)N1C,,,,,MIC [16]: 64 µg/mL; MIC [17]: 32 µg/mL
CN(C)c1cc(NC(=O)CNC(C)(C)C)c(O)c2c1C[C@H]1C[C@H]3[C@H](N(C)C)C(O)=C(C(N)=O)C(=O)[C@@]3(O)C(O)=C1C2=O [TIGECYCLINE],,,,,Activity [18]: Active; Activity [19]: Active; MIC [14]: 0.5 µg/mL; MIC [15]: 0.5 µg/mL; Activity [20]: Active
O=C(O)c1cn(C2CC2)c2cc(N3CCNCC3)c(F)cc2c1=O [CIPROFLOXACIN],,,,,MIC [21]: 0.5 µg/mL; MBC [22]: 0.13 µg/mL; MIC [14]: 1 µg/mL; MIC [23]: 0.13 µg/mL; MBC [24]: 4 µg/mL
Cc1cc(=O)c2c(Cc3cc(O)c(Cc4c(O)cc(Cc5cccc6oc(C)cc(=O)c56)oc4=O)c(=O)o3)cccc2o1,inactive,inactive,inactive,inactive,Drug metabolism [25]: metabolite_notdetected; MIC [21]: 1 µg/mL; MBC [26]: 4 µg/mL; Activity [27]: Active; Drug metabolism [28]: metabolite_notdetected; MBC [22]: 1 µg/mL; MIC [14]: 2 µg/mL; MIC [23]: 0.5 µg/mL; Activity [29]: inactive; MBC [24]: 8 µg/mL
CN[C@H](CC(C)C)C(=O)N[C@H]1C(=O)N[C@@H](CC(N)=O)C(=O)N[C@H]2C(=O)N[C@H]3C(=O)N[C@H](C(=O)N[C@H](C(=O)O)c4cc(O)cc(O)c4-c4cc3ccc4O)[C@H](O)c3ccc(c(Cl)c3)Oc3cc2cc(c3O[C@@H]2O[C@H](CO)[C@@H](O)[C@H](O)[C@H]2O[C@H]2C[C@](C)(N)[C@H](O)[C@H](C)O2)Oc2ccc(cc2Cl)[C@H]1O [VANCOMYCIN],,,,,MBC [26]: 4 µg/mL; Activity [18]: Active; Drug metabolism [30]: metabolite_detected; Activity [19]: Active; MBC [22]: 0.5 µg/mL; MIC [31]: 8 µg/mL; MIC [32]: 16 µg/mL; MIC [23]: 0.5 µg/mL; MIC [33]: 16 µg/mL; MIC [34]: 8 µg/mL; Activity [20]: Active; MBC [24]: 4 µg/mL
CCOC(=O)C[C@@H]1Oc2cc(C)oc(=O)c2[C@@H]1c1c(O)cc(C)oc1=O,inactive,inactive,inactive,inactive,
Cc1cc(=O)c2c(Cc3cc(O)c(Cc4c(O)cc(Cc5cccc6c5C(=O)CC(C)(O)O6)oc4=O)c(=O)o3)cccc2o1 (stereo unspecified),inactive,inactive,inactive,inactive,
CCOC(=O)/C=C/C(c1c(O)cc(C)oc1=O)c1c(O)cc(C)oc1=O,inactive,inactive,inactive,inactive,
Cc1cc(=O)c2c(Cc3cc(O)c(Cc4c(O)cc(Cc5cc(=O)c6c(C)cc(O)cc6o5)oc4=O)c(=O)o3)cccc2o1,inactive,inactive,inactive,inactive,
CC(=O)c1c(O)cccc1Cc1cc(O)c(Cc2c(O)cc(Cc3cccc4oc(C)cc(=O)c34)oc2=O)c(=O)o1,inactive,inactive,inactive,inactive,
Cc1cc(=O)c2c(Cc3cc(O)c(Cc4c(O)cc(CC5(O)CC(=O)c6c(C)cc(O)cc6O5)oc4=O)c(=O)o3)cccc2o1 (stereo unspecified),inactive,inactive,inactive,inactive,
Cc1cc(=O)c2c(Cc3cc(O)c(Cc4c(O)cc(Cc5cc(O)cc6c5C(=O)CC(C)(O)O6)oc4=O)c(=O)o3)cccc2o1 (stereo unspecified),inactive,inactive,inactive,inactive,
Cc1cc(=O)c2c(Cc3cc(O)c(Cc4c(O)cc(Cc5cccc(O)c5)oc4=O)c(=O)o3)cccc2o1,inactive,inactive,inactive,inactive,
CCOC(=O)CC=C(c1c(O)cc(C)oc1=O)c1c(O)cc(C)oc1=O,inactive,inactive,inactive,inactive,
CC(=O)CC(c1c(O)cc(Cc2cccc3oc(C)cc(=O)c23)oc1=O)c1c(O)cc(Cc2cccc3oc(C)cc(=O)c23)oc1=O,inactive,inactive,inactive,inactive,
CC(C)C[C@@H]1C(=O)N([C@H]2C(=O)N[C@@H](CC(N)=O)C(=O)N[C@H]3C(=O)N[C@H]4C(=O)N[C@H](C(=O)N[C@H](C(=O)O)c5cc(O)cc(O)c5-c5cc4ccc5O)[C@H](O)c4ccc(c(Cl)c4)Oc4cc3cc(c4O[C@@H]3O[C@H](CO)[C@@H](O)[C@H](O)[C@H]3O[C@H]3C[C@](C)(N)[C@H](O)[C@H](C)O3)Oc3ccc(cc3Cl)[C@H]2O)CN1C,,,,,MIC [16]: 64 µg/mL; MIC [17]: 64 µg/mL
